Results reported in ChEMBL document CHEMBL4680318, “(S)-Erypoegin K, an isoflavone isolated from Erythrina poeppigiana, is a novel inhibitor of topoisomerase IIα: Induction of G2 phase arrest in human gastric cancer cells” (Bioorg Med Chem, 2021).
Active and inactive are the calls of the source. The rule behind the calls is not given here.

Experiments:
[1] = Growth inhibition of human HBC4 cells measured after 48 hrs by sulforhodamine B assay; format: functional
[2] = Growth inhibition of human BSY1 cells measured after 48 hrs by sulforhodamine B assay; format: functional; conditions: BSY-1
[3] = Growth inhibition of human HBC5 cells measured after 48 hrs by sulforhodamine B assay; format: functional
U-251 = assay: Growth inhibition of human U-251 cells measured after 48 hrs by sulforhodamine B assay; format: functional
SF-268 = assay: Growth inhibition of human SF-268 cells measured after 48 hrs by sulforhodamine B assay; format: functional
SF-539 = assay: Growth inhibition of human SF-539 cells measured after 48 hrs by sulforhodamine B assay; format: functional
SNB-75 = assay: Growth inhibition of human SNB-75 cells measured after 48 hrs by sulforhodamine B assay; format: functional
HCC 2998 = assay: Growth inhibition of human HCC 2998 cells measured after 48 hrs by sulforhodamine B assay; format: functional
HT-29 = assay: Growth inhibition of human HT-29 cells measured after 48 hrs by sulforhodamine B assay; format: functional
HCT-116 = assay: Growth inhibition of human HCT-116 cells measured after 48 hrs by sulforhodamine B assay; format: functional
NCI-H23 = assay: Growth inhibition of human NCI-H23 cells measured after 48 hrs by sulforhodamine B assay; format: functional
NCI-H226 = assay: Growth inhibition of human NCI-H226 cells measured after 48 hrs by sulforhodamine B assay; format: functional
NCI-H460 = assay: Growth inhibition of human NCI-H460 cells measured after 48 hrs by sulforhodamine B assay; format: functional
A549 = assay: Growth inhibition of human A549 cells measured after 48 hrs by sulforhodamine B assay; format: functional
DMS-273 = assay: Growth inhibition of human DMS-273 cells measured after 48 hrs by sulforhodamine B assay; format: functional
DMS-114 = assay: Growth inhibition of human DMS-114 cells measured after 48 hrs by sulforhodamine B assay; format: functional
LOX IMVI = assay: Growth inhibition of human LOX IMVI cells measured after 48 hrs by sulforhodamine B assay; format: functional
OVCAR-3 = assay: Growth inhibition of human OVCAR-3 cells measured after 48 hrs by sulforhodamine B assay; format: functional
OVCAR-4 = assay: Growth inhibition of human OVCAR-4 cells measured after 48 hrs by sulforhodamine B assay; format: functional
OVCAR-5 = assay: Growth inhibition of human OVCAR-5 cells measured after 48 hrs by sulforhodamine B assay; format: functional
OVCAR-8 = assay: Growth inhibition of human OVCAR-8 cells measured after 48 hrs by sulforhodamine B assay; format: functional
St-4 = assay: Growth inhibition of human St-4 cells measured after 48 hrs by sulforhodamine B assay; format: functional
MKN-45 = assay: Growth inhibition of human MKN-45 cells measured after 48 hrs by sulforhodamine B assay; format: functional
MKN-74 = assay: Growth inhibition of human MKN-74 cells measured after 48 hrs by sulforhodamine B assay; format: functional
DU-145 = assay: Growth inhibition of human DU-145 cells measured after 48 hrs by sulforhodamine B assay; format: functional
PC-3 = assay: Growth inhibition of human PC-3 cells measured after 48 hrs by sulforhodamine B assay; format: functional
[4] = target: DNA topoisomerase 2-alpha (Homo sapiens) (UniProt P11388); assay: Inhibition of human DNA topoisomerase 2alpha assessed as suppression of decatenation using catenated kinetoplast DNA as substrate measured after 30 mins by ethidium bromide staining-based UV imaging analysis
MKN-1 [5] = assay: Cytotoxicity against human MKN-1 cells assessed as reduction in cell viability measured after 48 hrs by MTS/CellTiter96 aqueous one solution cell proliferation assay; format: functional, cell-based; conditions: MKN-1, 48 h
GCIY [6] = assay: Induction of apoptosis in human GCIY cells assessed as activation of caspase 3 measured after 5 to 35 hrs by fluorescence assay; format: functional, cell-based; conditions: dose 1-10 µM, time 5-35 hrs
GCIY [7] = assay: Induction of apoptosis in human GCIY cells assessed as activation of caspase 3 at 1 to 10 uM by fluorescence assay; format: functional, cell-based; conditions: dose 1-10 µM, time 5-35 hrs, TDE = time-dependent effect
GCIY [8] = assay: Induction of apoptosis in human GCIY cells assessed as activation of caspase 9 measured after 5 to 35 hrs by fluorescence assay; format: functional, cell-based; conditions: dose 1-10 µM, time 5-35 hrs
GCIY [9] = assay: Induction of apoptosis in human GCIY cells assessed as activation of caspase 9 at 1 to 10 uM by fluorescence assay; format: functional, cell-based; conditions: dose 1-10 µM, time 5-35 hrs, TDE = time-dependent effect
MKN-1 [10] = assay: Induction of apoptosis in human MKN-1 cells assessed as activation of caspase 3 measured after 5 to 35 hrs by fluorescence assay; format: functional, cell-based; conditions: dose 1-10 µM, time 5-35 hrs
MKN-1 [11] = assay: Induction of apoptosis in human MKN-1 cells assessed as activation of caspase 9 measured after 5 to 35 hrs by fluorescence assay; format: functional, cell-based; conditions: dose 1-10 µM, time 5-35 hrs
GCIY [12] = assay: Cell cycle arrest in human GCIY cells assessed as accumulation at G0/G1 phase at 0.1 uM measured after 24 hrs by propidium iodide staining based Muse cell analyzer (reference value: 43 +/- 2.2 %); format: functional
GCIY [13] = assay: Cell cycle arrest in human GCIY cells assessed as accumulation at G2/M phase at 0.1 uM measured after 24 hrs by propidium iodide staining based Muse cell analyzer (reference value: 28.9 +/- 1.3 %); format: functional
GCIY [14] = assay: Cell cycle arrest in human GCIY cells assessed as accumulation at G0/G1 phase at 0.3 uM measured after 24 hrs by propidium iodide staining based Muse cell analyzer (reference value: 43 +/- 2.2 %); format: functional
GCIY [15] = assay: Cell cycle arrest in human GCIY cells assessed as accumulation at S phase at 0.3 uM measured after 24 hrs by propidium iodide staining based Muse cell analyzer (reference value: 25.7 +/- 0.7 %); format: functional
GCIY [16] = assay: Cell cycle arrest in human GCIY cells assessed as accumulation at G2/M phase at 0.3 uM measured after 24 hrs by propidium iodide staining based Muse cell analyzer (reference value: 28.9 +/- 1.3 %); format: functional
MKN-1 [17] = assay: Cell cycle arrest in human MKN-1 cells assessed as accumulation at S phase at 0.1 uM measured after 24 hrs by propidium iodide staining based Muse cell analyzer (reference value: 15.5 +/- 0.2 %); format: functional
MKN-1 [18] = assay: Cell cycle arrest in human MKN-1 cells assessed as accumulation at G0/G1 phase at 0.3 uM measured after 24 hrs by propidium iodide staining based Muse cell analyzer (reference value: 49.6 +/- 2.6 %); format: functional
MKN-1 [19] = assay: Cell cycle arrest in human MKN-1 cells assessed as accumulation at S phase at 0.3 uM measured after 24 hrs by propidium iodide staining based Muse cell analyzer (reference value: 15.5 +/- 0.2 %); format: functional
MKN-1 [20] = assay: Cell cycle arrest in human MKN-1 cells assessed as accumulation at G2/M phase at 0.3 uM measured after 24 hrs by propidium iodide staining based Muse cell analyzer (reference value: 33.2 +/- 0.5 %); format: functional
GCIY [21] = assay: Antitumor activity against human GCIY cells xenografted in KSN/Slc nude mouse assessed as reduction in tumor size at 40 mg/kg, ip administered twice a week for 4 weeks starting from day 4 post inoculation by vernier caliper method; format: functional, organism-based

DNA topoisomerase 2-alpha (Homo sapiens), sequence (P11388 whole entry): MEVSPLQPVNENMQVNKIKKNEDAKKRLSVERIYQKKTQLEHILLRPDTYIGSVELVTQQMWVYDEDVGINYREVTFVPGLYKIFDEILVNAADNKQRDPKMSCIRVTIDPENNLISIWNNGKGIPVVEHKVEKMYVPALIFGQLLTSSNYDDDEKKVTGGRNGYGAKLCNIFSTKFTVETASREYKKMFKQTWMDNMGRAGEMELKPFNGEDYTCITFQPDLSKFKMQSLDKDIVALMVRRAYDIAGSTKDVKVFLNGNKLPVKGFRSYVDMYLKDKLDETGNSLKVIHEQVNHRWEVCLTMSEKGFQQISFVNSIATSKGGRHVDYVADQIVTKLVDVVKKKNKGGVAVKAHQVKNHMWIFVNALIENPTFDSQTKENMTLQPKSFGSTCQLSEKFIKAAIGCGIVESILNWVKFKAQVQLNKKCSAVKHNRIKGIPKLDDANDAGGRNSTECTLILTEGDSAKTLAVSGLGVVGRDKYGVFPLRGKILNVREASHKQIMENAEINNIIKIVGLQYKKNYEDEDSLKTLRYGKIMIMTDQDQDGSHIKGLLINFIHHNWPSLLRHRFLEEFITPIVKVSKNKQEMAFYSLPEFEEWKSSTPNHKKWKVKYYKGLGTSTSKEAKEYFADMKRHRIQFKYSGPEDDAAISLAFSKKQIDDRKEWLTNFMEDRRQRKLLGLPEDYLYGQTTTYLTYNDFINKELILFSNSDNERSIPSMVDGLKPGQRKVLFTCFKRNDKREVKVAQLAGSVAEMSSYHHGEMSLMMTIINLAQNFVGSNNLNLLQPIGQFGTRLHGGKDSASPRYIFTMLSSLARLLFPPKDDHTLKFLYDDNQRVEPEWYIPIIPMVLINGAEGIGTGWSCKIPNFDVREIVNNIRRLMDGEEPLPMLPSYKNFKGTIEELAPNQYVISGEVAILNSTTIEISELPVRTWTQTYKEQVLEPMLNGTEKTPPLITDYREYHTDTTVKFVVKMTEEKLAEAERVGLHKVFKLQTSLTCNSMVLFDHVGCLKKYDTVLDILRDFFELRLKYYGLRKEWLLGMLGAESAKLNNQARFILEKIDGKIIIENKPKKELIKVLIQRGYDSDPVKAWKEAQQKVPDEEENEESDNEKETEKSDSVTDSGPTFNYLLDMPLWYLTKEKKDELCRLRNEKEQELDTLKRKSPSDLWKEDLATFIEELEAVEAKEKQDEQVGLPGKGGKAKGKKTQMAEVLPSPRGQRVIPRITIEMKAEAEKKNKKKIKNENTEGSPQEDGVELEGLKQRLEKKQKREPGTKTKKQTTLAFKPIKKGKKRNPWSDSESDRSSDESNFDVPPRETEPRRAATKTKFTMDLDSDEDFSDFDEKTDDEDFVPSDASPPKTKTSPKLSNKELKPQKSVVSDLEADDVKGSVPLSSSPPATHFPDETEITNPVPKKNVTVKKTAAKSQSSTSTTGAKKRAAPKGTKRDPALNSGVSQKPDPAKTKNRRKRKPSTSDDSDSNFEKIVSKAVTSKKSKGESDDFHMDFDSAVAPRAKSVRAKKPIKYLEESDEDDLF

Q: Which GI50 [1] does the source give for `CC(C)(O)[C@@H]1Cc2c(cc(O)c3c(=O)c(-c4ccc(O)cc4)coc23)O1` here?
A: 1.74 µM

Q: And the GI50 [2]?
A: 0.631 µM

Q: And the GI50 [3]?
A: 6.76 µM

Q: What about the GI50 (U-251) of the same compound?
A: 0.331 µM

Q: And the GI50 (SF-268)?
A: 0.457 µM

Q: And the GI50 (SF-539)?
A: 0.347 µM

Q: And the GI50 (SNB-75)?
A: 0.537 µM

Q: What about the GI50 (HCC 2998) of the same compound?
A: 2.04 µM

Q: And the GI50 (HT-29)?
A: 10.5 µM

Q: What about the GI50 (HCT-116) of the same compound?
A: 1.07 µM

Q: And the GI50 (NCI-H23)?
A: 0.38 µM

Q: What about the GI50 (NCI-H226) of the same compound?
A: 0.295 µM

Q: And the GI50 (NCI-H460)?
A: 0.0708 µM

Q: What about the GI50 (A549) of the same compound?
A: 0.12 µM

Q: And the GI50 (DMS-273)?
A: 0.195 µM

Q: What about the GI50 (DMS-114) of the same compound?
A: 0.38 µM

Q: And the GI50 (LOX IMVI)?
A: 0.257 µM

Q: What about the GI50 (OVCAR-3) of the same compound?
A: 2.88 µM

Q: What about the GI50 (OVCAR-4) of the same compound?
A: > 100 µM

Q: And the GI50 (OVCAR-5)?
A: 1.35 µM

Q: What about the GI50 (OVCAR-8) of the same compound?
A: 0.417 µM

Q: And the GI50 (St-4)?
A: 6.03 µM

Q: What about the GI50 (MKN-45) of the same compound?
A: 0.347 µM

Q: What about the GI50 (MKN-74) of the same compound?
A: 6.92 µM

Q: What about the GI50 (DU-145) of the same compound?
A: 0.316 µM

Q: What about the GI50 (PC-3) of the same compound?
A: > 100 µM

Q: And the inhibition [4]?
A: Active

Q: What about the IC50 (MKN-1 [5]) of the same compound?
A: 0.327 µM

Q: What about the Activity (GCIY [6]) of the same compound?
A: Dose-dependent effect

Q: What about the Activity (GCIY [7]) of the same compound?
A: Tde

Q: What about the Activity (GCIY [8]) of the same compound?
A: Dose-dependent effect

Q: What about the Activity (GCIY [9]) of the same compound?
A: Tde

Q: What about the Activity (MKN-1 [10]) of the same compound?
A: Dose-dependent effect

Q: And the Activity (MKN-1 [11])?
A: Dose-dependent effect

Q: And the Activity (GCIY [12])?
A: 34.6%

Q: What about the Activity (GCIY [13]) of the same compound?
A: 40.4%

Q: What about the Activity (GCIY [14]) of the same compound?
A: 2.8%

Q: What about the Activity (GCIY [15]) of the same compound?
A: 7%

Q: And the Activity (GCIY [16])?
A: 87.3%

Q: And the Activity (MKN-1 [17])?
A: 12.3%

Q: What about the Activity (MKN-1 [18]) of the same compound?
A: 4.9%

Q: What about the Activity (MKN-1 [19]) of the same compound?
A: 9.5%

Q: And the Activity (MKN-1 [20])?
A: 83.6%

Q: And the Activity (GCIY [21])?
A: Active
